This note sets out measurements from patent US9549554B2, “Insecticidal synergistic combinations of phthaldiamide derivatives and abamectin, emamectin, lepimectin or milbemectin” (BAYER CROPSCIENCE AKTIENGESELLSCHAFT, priority 2013, dated 2017).

In one data set the test system is Myzus persicae. Briefly: Myzus persicae spray test (infested cabbage leaves). The class given is in vivo. The conditions noted are these: green peach aphid. How it is done:
Solvent: 7 parts by weight of dimethylformamide
Emulsifier: alkylaryl polyglycolether
Further test concentrations are prepared by dilution with emulsifier containing water Ammonium salt and/or penetration enhancer in a dosage of 1000 ppm are added to the desired concentration if necessary.
Cabbage leaves (Brassica oleracea) which are heavily infested by the green peach aphid (Myzus persicae) are treated by being sprayed with the preparation of the active compound of the desired concentration.

A further data set concerns Phaedon cochleariae. Briefly: Phaedon cochleariae spray test (Chinese cabbage leaf disks). The class given is in vivo. The conditions noted are these: mustard beetle larvae. The source says: Solvent: 78.0 parts by weight of acetone
• 1.5 parts by weight of dimethylformamide Emulsifier: 0.5 parts by weight of alkylaryl polyglycolether
Once dry, the leaf disks are infested with mustard beetle larvae (Phaedon cochleariae).
100% means all beetle larvae have been killed and 0% means none of the beetle larvae have been killed.

The test system of another data set is Spodoptera frugiperda. Briefly: whole plant or invertebrate. Here is the method: Solvent: 78.0 parts by weight acetone
• 1.5 parts by weight dimethylformamide Emulsifier: 0.5 parts by weight alkylarylpolyglycolether
To produce a suitable preparation of a spore suspension the spores are diluted with emulsifier-containing water to the desired concentration.
Maize (Zea mais) leaf sections are sprayed with a preparation of the active ingredient of the desired concentration. Once dry, the leaf sections are infested with fall armyworm larvae (Spodoptera frugiperda).
After the specified period of time, mortality in % is determined. 100% means all caterpillars have been killed and 0% means none of the caterpillars have been killed. The mortality values determined thus are recalculated using the Colby-formula (see sheet 1).

[1] abbreviates: Spodoptera frugiperda, in Zea mays, 144 h, read-out: Efficacy in % after 6d (mortality).

In the case of “Emamectin benzoate [Emamectin-Benzoate, reference compound]”, the “Efficacy in % after 6d (mortality)” value with Myzus persicae (15 ppm) came to 15%.

In the case of `Cc1cc(C(F)(C(F)(F)F)C(F)(F)F)ccc1NC(=O)c1cccc(Cl)c1C(=O)NC(C)(C)C#N` [(I-5)], the mortality (as a rule, the share of the test organisms that died) at 4 g/ha with Phaedon cochleariae (Phaedon cochleariae, foliar, 144 h, 4 g ai/ha, after 6 d, read-out: Efficacy in % after 6d (mortality)) turned out to be 0%. Besides, in the data set with Spodoptera frugiperda (setting [1]), the mortality at 0.25 g/ha amounted to 0% and the mortality at 3 g/ha is 33%. For the same molecule, the mortality at 3 ppm in the data set on Myzus persicae (Myzus persicae, 144 h, 3 ppm, after 6 d, read-out: Efficacy in % after 6d (mortality)) came out at 0%. Besides, in the data set with Myzus persicae (Myzus persicae, 144 h, 75 ppm, after 6 d, read-out: Efficacy in % after 6d (mortality)), the mortality at 75 ppm was 0%.

As to “Abamectin [Abamectin (II-1), reference compound]”, the “Efficacy in % after 6d (mortality)” value amounted to 0% with Phaedon cochleariae (0.032 g ai/ha) and 0% with Spodoptera frugiperda (15 g ai/ha, fall armyworm larvae, after 6 d).
